Measured values as given in patent US8546608B2, “Proteasome inhibitors and methods of using the same” (Cephalon, Inc., priority 2003, dated 2013).

Columns and labels:
[1] = molecular target: T1, 20S Human Erythrocyte Proteasome (HEP) (Homo sapiens, UniProt P20618+P28074); assay: Chymotrypsin-like activity of 20S Human Erythrocyte Proteasome (HEP), IC50 determination; type: biochemical; conditions: assay of Example C, inhibition of HEP
T1 construct: 20S Human Erythrocyte Proteasome (HEP), purchased from Immatics Biotechnologies Inc; purchased Immatics Biotechnologies Inc., Tübingen, Germany; host or cells: human erythrocytes (natural source)
Outline: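 20S proteasome at 0.2 μg/mL (about 0.6 nM catalytic sites) in 20 mM Tris with 0.04% SDS, preincubated 15 min at 37° C with inhibitor before Suc-LLVY-AMC (100 μM final). AMC fluorescence read in the linear range; triplicates, IC50 from concentration series.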

[2] = molecular target: T2, proteasome in Molt-4 cells (human leukemia) (Homo sapiens, UniProt P20618+P28074); type: cell-based; conditions: assay of Example E, inhibition of MOLT4; read-out: MOLT4 (EC50)
T2 sequence (P28074 60-263): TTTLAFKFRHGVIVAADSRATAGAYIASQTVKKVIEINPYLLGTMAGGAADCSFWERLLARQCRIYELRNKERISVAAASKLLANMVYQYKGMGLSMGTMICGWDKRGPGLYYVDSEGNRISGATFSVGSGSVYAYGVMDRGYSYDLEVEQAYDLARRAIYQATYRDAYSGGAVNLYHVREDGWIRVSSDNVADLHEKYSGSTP
T2 sequence (P20618 29-241): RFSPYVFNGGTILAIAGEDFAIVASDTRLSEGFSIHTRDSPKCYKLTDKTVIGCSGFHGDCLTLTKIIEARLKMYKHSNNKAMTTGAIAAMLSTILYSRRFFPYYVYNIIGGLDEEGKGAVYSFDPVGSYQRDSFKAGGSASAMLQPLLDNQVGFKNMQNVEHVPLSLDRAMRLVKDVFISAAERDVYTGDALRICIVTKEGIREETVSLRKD
Outline: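 Intact Molt-4 cells (6×10^6 cells/mL) in HEPES-buffered saline were preincubated with inhibitor 15 min at 37 °C, then given cell-permeable MeOSuc-FLF-AFC at 25 μM final.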

IC50 [1]	EC50 [2]	SMILES
< 0.01 µM	2 to 10 µM	CC(C)C[C@H](NC(=O)[C@H](CCCNC(=N)N[N+](=O)[O-])NC(=O)C1CCC(C(C)(C)C)CC1)B(O)O (stereo partly drawn) [E.2.5, Boronic acid, [(1R)-1-[[(2S)-5-[[imino(nitroamino)methyl]amino]-2-[[4-(1,1-Dimethylethyl)cyclohexanecarbonyl]amino]-1-oxopentyl]amino]-3-methylbutyl]]
< 0.1 µM	> 10 µM	CC(C)C[C@H](NC(=O)[C@H](CCCNC(=N)N[N+](=O)[O-])NC(=O)C1CC1)B(O)O [D.7.30, Boronic acid, [(1R)-1-[[(2S)-5-[[imino(nitroamino)methyl]amino]-2-[(cyclopropanecarbonyl)amino]-1-oxopentyl]amino]-3-methylbutyl]]
< 0.01 µM	> 10 µM	CC(C)C[C@H](NC(=O)[C@H](CCCNC(=N)N[N+](=O)[O-])NC(=O)CCC(=O)c1ccc(S(C)(=O)=O)cc1)B(O)O [E.2.47, Boronic acid, [(1R)-1-[[(2S)-5-[[imino(nitroamino)methyl]amino]-2-[[4-(4-methanesulfonylphenyl)-4-oxobutanoyl]amino]-1-oxopentyl]amino]-3-methylbutyl]]
< 0.01 µM	> 10 µM	CCSCC(=O)N[C@@H](CCCNC(=N)N[N+](=O)[O-])C(=O)N[C@@H](CC(C)C)B(O)O [E.2.66, Boronic acid, [(1R)-1-[[(2S)-5-[[imino(nitroamino)methyl]amino]-2-[(2-ethylsulfanylacetyl)amino]-1-oxopentyl]amino]-3-methylbutyl]]
< 0.01 µM	< 0.2 µM	CCCCc1ccc(C(=O)N[C@@H](CCCNC(=N)N[N+](=O)[O-])C(=O)N[C@@H](CC(C)C)B2O[C@@H]3C[C@@H]4C[C@@H](C4(C)C)[C@]3(C)O2)cc1 [D.1.4, 4-Butylbenzamide,N-[(1S)-1-[[[(1R)-1-[(3aS,4S,6S,7aR)-hexahydro-3a,5,5-trimethyl-4,6-methano-1,3,2-benzodioxaborol-2-yl]-3-methylbutyl]amino]carbonyl]-4-[[imino(nitroamino)methyl]amino]butyl]]
< 0.01 µM	< 0.2 µM	CCCCCCCCCC(=O)N[C@@H](CNC(=O)c1cccs1)C(=O)N[C@@H](CC(C)C)B(O)O [E.5.9]
< 0.1 µM	0.2 to 2 µM	COCCOCC(=O)N[C@@H](CCCNC(=N)N[N+](=O)[O-])C(=O)N[C@@H](CC(C)C)B1O[C@@H]2C[C@@H]3C[C@@H](C3(C)C)[C@]2(C)O1 [D.1.6]
< 0.01 µM	2 to 10 µM	CC(C)C[C@H](NC(=O)[C@H](CCCNC(=N)N[N+](=O)[O-])NC(=O)Cc1ccc(Br)cc1)B(O)O [E.2.38, Boronic acid, [(1R)-1-[[(2S)-5-[[imino(nitroamino)methyl]amino]-2-[[2-(4-bromophenyl)acetyl]amino]-1-oxopentyl]amino]-3-methylbutyl]]
< 0.01 µM	< 0.2 µM	CCCCCCCCCC(=O)N[C@H](C(=O)N[C@@H](CC(C)C)B1O[C@@H]2C[C@@H]3C[C@@H](C3(C)C)[C@]2(C)O1)[C@@H](C)O [D.8, Decanamide, N-[(1S,2R)-1-[[[(1R)-1-[(3aS,4S,6S,7aR)-hexahydro-3a,5,5-trimethyl-4,6-methano-1,3,2-benzodioxaborol-2-yl]-3-methylbutyl]amino]carbonyl]-2-hydroxypropyl]-]
< 0.01 µM	< 0.2 µM	CC(C)C[C@H](NC(=O)[C@H](CCCN/C(N)=N/[N+](=O)[O-])NC(=O)C(CCCCCCCCN1C(=O)c2ccccc2C1=O)C1CCCC1)B(O)O (stereo partly shown) [E.1.21]
< 0.01 µM	2 to 10 µM	Cc1cccc(/C=C/C(=O)N[C@@H](CCCNC(=N)N[N+](=O)[O-])C(=O)N[C@@H](CC(C)C)B(O)O)c1 [E.2.33, Boronic acid, [(1R)-1-[[(2S)-5-[[imino(nitroamino)methyl]amino]-2-[[(E)-3-(3-methylphenyl)acryl]amino]-1-oxopentyl]amino]-3-methylbutyl]]
< 0.01 µM	0.2 to 2 µM	CC(C)C[C@H](NC(=O)[C@H](CCCNC(=N)N[N+](=O)[O-])NC(=O)CCCNC(=O)OCC1c2ccccc2-c2ccccc21)B(O)O [D.7.38, Boronic acid, [(1R)-1-[[(2S)-5-[[imino(nitroamino)methyl]amino]-2-[[[[[(9H-fluoren-9-yl)methoxy]carbonyl]amino]butanoyl]amino]-1-oxopentyl]amino]-3-methylbutyl]]

Second part, the compound before the results:

SMILES	IC50 [1]	EC50 [2]
CCc1ccc(CCC(=O)N[C@@H](CCCNC(=N)N[N+](=O)[O-])C(=O)N[C@@H](CC(C)C)B(O)O)cc1 [E.2.78, Boronic acid, [(1R)-1-[[(2S)-5-[[imino(nitroamino)methyl]amino]-2-[[3-(4-ethylphenyl)propanoyl]amino]-1-oxopentyl]amino]-3-methylbutyl]]	< 0.01 µM	2 to 10 µM
CCCCCCCCCCS(=O)(=O)N[C@@H](CCCNC(=N)N[N+](=O)[O-])C(=O)N[C@@H](CC(C)C)B1O[C@@H]2C[C@@H]3C[C@@H](C3(C)C)[C@]2(C)O1 [D.4.3, Decane-1-sulfonamide, N-[(1S)-1-[[[(1R)-1-[(3aS,4S,6S,7aR)-hexahydro-3a,5,5-trimethyl-4,6-methano-1,3,2-benzodioxaborol-2-yl]-3-methylbutyl]amino]carbonyl]-4-[[imino(nitroamino)methyl]amino]butyl]]	< 0.01 µM	< 0.2 µM
CC(C)C[C@H](NC(=O)[C@@H](NC(=O)c1ccc2cc(Br)ccc2c1)[C@@H](C)O)B(O)O [E.1.26, Boronic acid, [(1R)-1-[[(2S,3R)-3-hydroxy-2-[(6-Bromo-2-naphthoyl)amino]-1-oxobutyl]amino]-3-methylbutyl]]	< 0.01 µM	< 0.2 µM
CC(C)C[C@H](NC(=O)[C@H](CCCNC(=N)N[N+](=O)[O-])NC(=O)CCc1ccc(C(C)C)cc1)B1O[C@@H]2C[C@@H]3C[C@@H](C3(C)C)[C@]2(C)O1 [D.3.190, 3-[4-(2-Propyl)phenyl]propanamide, N-[(1S)-1-[[[(1R)-1-[(3aS,4S,6S,7aR)-hexahydro-3a,5,5-trimethyl-4,6-methano-1,3,2-benzodioxaborol-2-yl]-3-methylbutyl]amino]carbonyl]-4-[[imino(nitroamino)methyl]amino]butyl]]	< 0.01 µM	< 0.2 µM
CC(C)C[C@H](NC(=O)[C@H](CCCNC(=N)N[N+](=O)[O-])NC(=O)c1ccc(C(C)C)cc1)B(O)O [D.7.11, Boronic acid, [(1R)-1-[[(2S)-5-[[imino(nitroamino)methyl]amino]-2-[(4-isopropylbenzoyl)amino]-1-oxopentyl]amino]-3-methylbutyl]]	< 0.01 µM	2 to 10 µM
CCCCCCCCCCCNC(=O)N[C@H](C(=O)N[C@@H](CC(C)C)B(O)O)[C@@H](C)O [E.1.24, Boronic acid, [(1R)-1-[[(2S,3R)-3-hydroxy-2-[(undecylaminocarbonyl)amino]-1-oxobutyl]amino]-3-methylbutyl]]	< 0.01 µM	< 0.2 µM
CCCCc1ccc(C(=O)N[C@@H](CNS(=O)(=O)c2ccc(F)cc2)C(=O)N[C@@H](CC(C)C)B2O[C@@H]3C[C@@H]4C[C@@H](C4(C)C)[C@]3(C)O2)cc1 [D.19, 4-Butylbenzamide, N-[(1S)-1-[[[(1R)-1-[(3aS,4S,6S,7aR)-hexahydro-3a,5,5-trimethyl-4,6-methano-1,3,2-benzodioxaborol-2-yl]-3-methylbutyl]amino]carbonyl]-2-[4-fluoro-benzenesulfonammide]ethyl]-]	< 0.01 µM	< 0.2 µM
CC(=O)NCCCCCC(=O)N[C@@H](CCCNC(=N)N[N+](=O)[O-])C(=O)N[C@@H](CC(C)C)B(O)O [E.2.75, Boronic acid, [(1R)-1-[[(2S)-5-[[imino(nitroamino)methyl]amino]-2-[[6-(acetylamino)hexanoyl]amino]-1-oxopentyl]amino]-3-methylbutyl]]	< 0.01 µM	> 10 µM
CCCCCCCCCC(=O)N[C@@H](CNC(C)=O)C(=O)N[C@@H](CC(C)C)B(O)O [E.5.1, Boronic acid, [(1R)-1-[[(2S)-3-(acetylamino)-2-[(decanoylamino)]-1-oxopropyl]amino]-3-methylbutyl]]	< 0.01 µM	< 0.2 µM
CC(C)C[C@H](NC(=O)[C@H](CCCNC(=N)N[N+](=O)[O-])NC(=O)c1cnccn1)B(O)O [E.1.2, Boronic acid, [(1R)-1-[[(2S)-5-[[imino(nitroamino)methyl]amino]-2-[(2-pyrazine-carbonyl)amino]-1-oxopentyl]amino]-3-methylbutyl]]	< 0.01 µM	2 to 10 µM
CCCCCc1ccc(S(=O)(=O)N[C@@H](CCCNC(=N)N[N+](=O)[O-])C(=O)N[C@@H](CC(C)C)B2O[C@@H]3C[C@@H]4C[C@@H](C4(C)C)[C@]3(C)O2)cc1 [D.4.8, 4-Pentyl-benzenesulfonamide, N-[(1S)-1-[[[(1R)-1-[(3aS,4S,6S,7aR)-hexahydro-3a,5,5-trimethyl-4,6-methano-1,3,2-benzodioxaborol-2-yl]-3-methylbutyl]amino]carbonyl]-4-[[imino(nitroamino)methyl]amino]butyl]]	< 0.1 µM	< 0.2 µM
